In assay [1] the test system is CUL5/RBX2 with ZYG11B-EloBC. The class given is binding, human.
Assay [2] addresses T1, ZYG11B-EloBC (Homo sapiens, UniProt Q9C0D3). Description: MBP pull-down with substrate receptor module ZYG11B-EloBC. To be noted: MBP fusion on amylose resin, prey 1:1, 1 h, 4°C; SDS-PAGE, Coomassie. The class given is binding. The method, then:
Peptides corresponding to […] and […] were appended to the N terminus of maltose-binding protein (MBP) and cloned into pET-28a containing an N-terminal His6 tag followed by a TEV protease cleavage site. Fusion proteins were purified by Ni-NTA chromatography, digested with TEV protease, and passed over Ni-NTA resin again to remove TEV and the cleaved His6 tag. Final purification was performed by size-exclusion chromatography. The resulting proteins contained MBP fused to N-terminal Gly/N-degron overhangs. For pulldown experiments, approximately 100 μg MBP fusion protein was immobilized on 50 μL amylose resin and incubated with prey protein at a 1:1 molar ratio for 1 h at 4°C. Resin was washed three times, and bound proteins were eluted in sizing buffer supplemented with 20 mM maltose. Samples were analyzed by SDS-PAGE and Coomassie staining. Pulldown efficiency was quantified as the ratio of MBP–NLRP1 degron signal to ZYG11B signal in the same gel lane. […]
incubation of full-length Cyclin B1 without Gly/N-degron with ZYG11B–EloBC (top). SDS–PAGE analysis of the indicated fractions from the Superose 6 column (dashed lines) confirms complex formation (bottom) C, fluorescence anisotropy binding of ZYG11B-EloBC to indicated fluorescein-labeled peptides (left) and fitted equilibrium dissociation constants (right). […]

Assay [3] concerns CRL2^ZYG11B. Briefly: MBP pull-down with E3 holoenzyme CRL2^ZYG11B. The class given is binding, human. To be noted: MBP fusion on amylose resin, prey 1:1, 1 h, 4°C; SDS-PAGE, Coomassie. The method, then:
Bacmids were generated in DH10Bac cells and transfected into Sf9 cells to produce recombinant baculovirus, which was amplified through two additional rounds. Four liters of Sf9 cells at 2 × 10 ^6 cells/mL were infected with amplified virus and harvested after 60 h. Cell pellets were resuspended in buffer B (50 mM Tris-HCl, 500 mM NaCl, 0.5 mM EDTA, 0.5 mM TCEP, and 1 mM PMSF) supplemented with protease inhibitors, lysed by sonication, and clarified by ultracentrifugation at 40,000 rpm for 1 h. The supernatant was incubated with Strep-Tactin Sepharose resin for 2 h, washed extensively with buffer B, and eluted with 20 mM HEPES, pH 7.5, 300 mM NaCl, 0.5 mM TCEP, and 10 mM D-desthiobiotin. The complex was further purified by size-exclusion chromatography in the same sizing buffer used for ZYG11B–EloBC.
To reconstitute the pentameric CRL2–ZYG11B complex (ZBCC), purified ZYG11B–EloBC and CUL2/Rbx1 complexes were mixed at a 1:1 molar ratio and incubated on ice for 30 min. […]
Peptides corresponding to […] and […] were appended to the N terminus of maltose-binding protein (MBP) and cloned into pET-28a containing an N-terminal His6 tag followed by a TEV protease cleavage site. […] Samples were analyzed by SDS-PAGE and Coomassie staining. Pulldown efficiency was quantified as the ratio of MBP–NLRP1 degron signal to ZYG11B signal in the same gel lane. […]

The target in assay [4] is T1, ZYG11B-EloBC. The class given is binding.
In assay [5] the test system is NLRP1. To be noted: treatment of cells with pan-CRL inhibitor; cited from earlier work. An excerpt:
Human NLRP1 (NACHT, LRR, and PYD domains-containing protein 1) has recently been characterized as a substrate of CRL2 in complex with either ZYG11B or ZER1.[7] NLRP1 is an effector-triggered immunity (ETI) sensor of pathogen-encoded proteases, wherein cleavage of NLRP1 in mice and humans by specific bacterial or viral proteases results in inflammasome formation, which leads to subsequent release of pro-inflammatory cytokines such as IL-1b and IL-18 and pyroptotic cell death.[7]-[10] The mechanism by which this occurs, termed functional degradation, depends on specific recognition, ubiquitinati ...

T1 sequence (Q9C0D3 whole entry, the tested form may be a part): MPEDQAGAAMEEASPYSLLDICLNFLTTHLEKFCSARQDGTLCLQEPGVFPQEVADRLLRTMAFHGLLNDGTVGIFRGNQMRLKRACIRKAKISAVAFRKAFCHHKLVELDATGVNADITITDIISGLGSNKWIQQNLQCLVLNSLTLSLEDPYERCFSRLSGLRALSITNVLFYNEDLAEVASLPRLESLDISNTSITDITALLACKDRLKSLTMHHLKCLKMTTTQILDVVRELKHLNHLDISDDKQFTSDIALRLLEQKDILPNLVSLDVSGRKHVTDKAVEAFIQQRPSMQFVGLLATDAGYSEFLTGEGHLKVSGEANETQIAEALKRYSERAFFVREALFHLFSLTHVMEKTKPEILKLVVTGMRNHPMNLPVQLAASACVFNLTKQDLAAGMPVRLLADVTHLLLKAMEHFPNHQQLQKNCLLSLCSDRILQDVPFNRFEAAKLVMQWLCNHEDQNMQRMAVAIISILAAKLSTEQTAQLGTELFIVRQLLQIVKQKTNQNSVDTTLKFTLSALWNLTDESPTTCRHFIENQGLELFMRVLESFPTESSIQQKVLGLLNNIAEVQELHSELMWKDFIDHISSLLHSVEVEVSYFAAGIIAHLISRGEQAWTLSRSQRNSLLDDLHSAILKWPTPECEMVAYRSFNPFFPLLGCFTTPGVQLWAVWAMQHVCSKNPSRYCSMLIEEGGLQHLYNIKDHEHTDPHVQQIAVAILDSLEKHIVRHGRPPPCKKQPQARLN
T1 sequence (Q15370 whole entry partner, the tested form may be a part): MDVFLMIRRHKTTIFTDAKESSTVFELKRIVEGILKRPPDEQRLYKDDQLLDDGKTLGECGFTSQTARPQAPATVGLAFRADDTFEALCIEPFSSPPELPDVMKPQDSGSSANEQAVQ
T1 sequence (Q15369 17-112 partner limits assumed): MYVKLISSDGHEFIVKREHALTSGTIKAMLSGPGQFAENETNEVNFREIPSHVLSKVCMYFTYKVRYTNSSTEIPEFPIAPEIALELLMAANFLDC

GSERRVLRQLPDTSGRRWRE [Degron-20]: the “amount of CUL5/RBX2 retained compared to CUL2/RBX1” value in assay [1] is “reduced compared to CUL2/RBX1”. Besides, in assay [2], the “interaction with ZYG11B-EloBC” value is recorded as “interacted”. Moreover, the “interaction with CRL2^ZYG11B” value in assay [3] is reported as “interacted”.

GSERRVLRQL [Degron-10]: in assay [1], the “amount of CUL5/RBX2 retained compared to CUL2/RBX1” value is listed as “reduced compared to CUL2/RBX1”. Besides, the “interaction with ZYG11B-EloBC” value in assay [2] is listed as “interacted”. In addition, in assay [3], the “interaction with CRL2^ZYG11B” value is given as “interacted”.

Turning to GSERRVLRQLPDTSG [chimera], the “co-purification / complex formation with ZYG11B-EloBC” value in assay [4] is “copurified with ZYG11B-EloBC”.

Take `NS(=O)(=O)OC[C@@H]1C[C@@H](n2ccc3c(N[C@H]4CCc5ccccc54)ncnc32)C[C@@H]1O` [MLN4924]: the “effect on HRV-mediated activation of NLRP1” value in assay [5] is reported as “impairs HRV-mediated activation of NLRP1”.

The record behind these values is publication PMC13379236 (Cell reports, 2026).
